Counter-ions that a name gives are not always drawn.
Tests used:
[1] = molecular target: T1, recombinant human LTA4 hydrolase (Homo sapiens, UniProt P09960); assay: In vitro assay testing inhibitory activity against purified recombinant human LTA4 hydrolase (LTB4 formed measured by LC-MS/MS); assay type: biochemical; conditions: purified recombinant human LTA4 hydrolase 200 nM, LTA4 2 μM, 120 sec at room temperature; read-out: AvgIC50
T1 construct: A human LTA4 hydrolase full-length cDNA clone (NM_000895) was purchased from OriGene Technologies; made in house; host or cells: Escherichia coli BL21-AI
T1 sequence (P09960 1-611): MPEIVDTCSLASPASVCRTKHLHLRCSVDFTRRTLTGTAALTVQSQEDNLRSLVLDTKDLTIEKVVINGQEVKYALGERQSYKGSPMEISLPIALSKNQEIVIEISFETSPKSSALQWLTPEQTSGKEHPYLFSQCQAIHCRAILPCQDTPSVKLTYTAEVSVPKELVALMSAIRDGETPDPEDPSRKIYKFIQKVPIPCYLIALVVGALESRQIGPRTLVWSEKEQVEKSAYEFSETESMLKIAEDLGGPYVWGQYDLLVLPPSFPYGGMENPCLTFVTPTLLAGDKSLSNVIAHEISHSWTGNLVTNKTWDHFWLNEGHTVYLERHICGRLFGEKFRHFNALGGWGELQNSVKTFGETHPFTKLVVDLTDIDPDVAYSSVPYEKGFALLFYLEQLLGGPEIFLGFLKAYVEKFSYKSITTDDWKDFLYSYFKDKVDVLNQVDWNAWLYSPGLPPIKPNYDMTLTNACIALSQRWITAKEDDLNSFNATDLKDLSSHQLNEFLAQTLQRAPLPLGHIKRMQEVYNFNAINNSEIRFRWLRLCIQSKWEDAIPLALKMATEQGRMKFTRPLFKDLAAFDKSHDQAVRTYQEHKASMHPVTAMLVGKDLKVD
Experimental: The compounds of the invention were incubated in a series of dilutions with 200 nM of recombinant enzyme in assay buffer (100 mM Tris-HCl, 100 mM NaCl, 5 mg/ml fatty-acid free BSA, 10% DMSO, pH 8.0) for 10 min at room temperature to allow binding between LTA4 hydrolase and the inhibitors. LTA4 was prepared by alkaline hydrolysis of LTA4 methyl ester (Biomol, Plymouth Meeting, Pa., or Cayman Chemicals, Ann Arbor, Mich.). A solution of 10 μg of the ester was dried under a nitrogen stream and redissolved in 60 μl of a solution of 80% acetone and 20% 0.25 M NaOH. After incubation for 40 min at room temperature the resulting approximately 500 mM tock of LTA4 was kept at −80° C. for no more than a few days prior to use.
Immediately before the assay, LTA4 was diluted to a concentration of 10 μM in assay buffer (without DMSO) and added to the reaction mixture to a final concentration of 2 μM to initiate the enzyme reaction. […] The samples were then kept at 4° C. overnight to complete protein precipitation and centrifuged for 15 min at 1800 g.

human whole blood = assay: Ex vivo assay testing inhibitory activity in human whole blood after stimulation with calcium ionophor (LTB4 by ELISA); assay type: cell-based; conditions: 0.5 h, Ionomycin 20 μM, 30 min at 37° C., read-out: hWBIC50
Experimental: (2) Ex vivo assay testing inhibitory activity in human whole blood after stimulation with calcium ionophor.
Human blood was collected in heparin-containing Vacutainer tubes. […] Then 4 μl of a series of compound dilutions (in DMSO) were added, followed by a 15 min incubation at 37° C. with gentle shaking. After that, blood samples were stimulated by adding Ionomycin (Calbiochem) to a final concentration of 20 μM. After another incubation at 37° C. for 30 min, samples were centrifuged for 5 min at 1800 g and 4° C. Supernatants were taken and LTB4 concentrations were determined using a commercially available enzyme-linked immunosobentassay (R&D Systems, Minneapolis, Minn.) according to the manufacturer's instructions.

colitis symptoms = conditions: eight weeks of treatment; cited from earlier work

Question: Which IC50 [1] does the source give for `O=C(O)CN1CCC[C@H]1COc1ccc(Cc2ccccc2)cc1` [Example 35, [(S)-2-(4-Benzyl-phenoxymethyl)-pyrrolidin-1-yl]-acetic acid TFA salt] here?
Answer: 5 to 20 µM

Question: For `Cc1ccc(Oc2ccc(OC[C@@H]3CCCN3CCCC(=O)O)cc2)cc1` [Example 37, 4-[(S)-2-(4-p-Tolyloxy-phenoxymethyl)-pyrrolidin-1-yl]-butylic acid HCl], which IC50 [1] is on record?
Answer: < 5 µM

Question: What does the source list for `c1csc(-c2ccc(Cc3ccc(OC[C@@H]4CCCN4)cc3)cc2)c1` [Example 117, (S)-2-[4-(2-thiophen-benzyl)-phenoxymethyl]-pyrrolidine hydrogen chloride salt]?
Answer: IC50 [1]: < 5 µM; IC50 (human whole blood): < 5 µM

Question: Which “colitis symptoms in a primate model” value (colitis symptoms) does the source give for `CN(CCCOc1ccc(Cc2ccccc2)cc1)CCC(=O)O.Cl` [SC57461] here?
Answer: significantly improved colitis symptoms

Reference: US7402684B2, “Biaryl substituted heterocycle inhibitors of LTA4H for treating inflammation” (deCODE genectics ehf., priority 2005, dated 2008)
